Test results as given in the NIST ThermoML archive (doi:10.1021/je900077g).

Assay: excess molar enthalpy (molar enthalpy of mixing); xn = mol fraction of the nth substance listed
Conditions: 308.15 K, 101 kPa, Liquid, Calvet calorimetry

C1COCCO1 [1,4-dioxane] + C1CCCCC1
Conditions | excess molar enthalpy [kcal/mol]
x2 = 0.101 | 0.136
x2 = 0.204 | 0.251
x2 = 0.288 | 0.319
x2 = 0.408 | 0.374
x2 = 0.506 | 0.3872
x2 = 0.606 | 0.376
x2 = 0.705 | 0.343
x2 = 0.803 | 0.275
x2 = 0.9 | 0.166

C1CCOCC1 [tetrahydropyran] + C1CCCCC1
Conditions | excess molar enthalpy [kcal/mol]
x2 = 0.101 | 0.0375
x2 = 0.2 | 0.0703
x2 = 0.3 | 0.0985
x2 = 0.4 | 0.117
x2 = 0.499 | 0.126
x2 = 0.606 | 0.124
x2 = 0.699 | 0.11
x2 = 0.8 | 0.0848
x2 = 0.9 | 0.0473

C1CCOCC1 [tetrahydropyran] + C1COCCO1
Conditions | excess molar enthalpy [kcal/mol]
x1 = 0.104 | 0.0356
x1 = 0.201 | 0.0595
x1 = 0.299 | 0.0753
x1 = 0.398 | 0.0841
x1 = 0.497 | 0.0863
x1 = 0.612 | 0.0817
x1 = 0.716 | 0.0707
x1 = 0.8 | 0.0562
x1 = 0.9 | 0.0323
